This note sets out measurements from the NIST ThermoML archive (doi:10.1016/j.fluid.2018.09.024).

The data set in a line: activity coefficient (dimensionless); of the first substance listed, at infinite dilution; xn = mol fraction of the nth substance listed. The conditions noted are these: 101.33 kPa, Liquid, Chromatography, x1 = 0.

SMILES strings stand for the structures. Numbers after ± are expanded uncertainties.

Consider `CCO` [ethanol] + CCCCCCCCCCCC[N+](C)(C)CCOc1ccccc1.O=S(=O)([N-]S(=O)(=O)C(F)(F)F)C(F)(F)F, for which the activity coefficient (318.15 K) worked out at 1.24 ± 0.08; the activity coefficient (328.15 K) was 1.2 ± 0.08; the activity coefficient (338.15 K) is 1.16 ± 0.07; the activity coefficient (348.15 K) was determined as 1.12 ± 0.07; the activity coefficient (358.15 K) was 1.09 ± 0.07; the activity coefficient (368.15 K) is 1.06 ± 0.07.

On to `CCOC(C)=O` [ethyl acetate] + CCCCCCCCCCCC[N+](C)(C)CCOc1ccccc1.N#C[N-]C#N, for which the activity coefficient is 1.2 ± 0.08 (328.15 K); 1.24 ± 0.08 (338.15 K); 1.27 ± 0.08 (348.15 K); 1.31 ± 0.09 (358.15 K); 1.34 ± 0.09 (368.15 K); 1.37 ± 0.09 (378.15 K).

Consider `CCOC(C)=O` [ethyl acetate] + CCCCCCCCCCCC[N+](C)(C)CCOc1ccccc1.O=S(=O)([N-]S(=O)(=O)C(F)(F)F)C(F)(F)F, for which the activity coefficient amounted to 0.505 ± 0.038 (318.15 K); 0.533 ± 0.039 (328.15 K); 0.563 ± 0.04 (338.15 K); 0.592 ± 0.042 (348.15 K); 0.62 ± 0.043 (358.15 K); 0.648 ± 0.044 (368.15 K).

Consider `CCc1ccccc1` [ethylbenzene] + CCCCCCCCCCCC[N+](C)(C)CCOc1ccccc1.N#C[N-]C#N, for which the activity coefficient reads like this: (328.15 K) 1.4 ± 0.09; (338.15 K) 1.45 ± 0.1; (348.15 K) 1.5 ± 0.1; (358.15 K) 1.55 ± 0.1; (368.15 K) 1.6 ± 0.11; (378.15 K) 1.64 ± 0.11.

Regarding `CCc1ccccc1` [ethylbenzene] + CCCCCCCCCCCC[N+](C)(C)CCOc1ccccc1.O=S(=O)([N-]S(=O)(=O)C(F)(F)F)C(F)(F)F, the activity coefficient turned out to be 0.9 ± 0.057 (318.15 K); 0.948 ± 0.06 (328.15 K); 0.995 ± 0.062 (338.15 K); 1.04 ± 0.07 (348.15 K); 1.09 ± 0.07 (358.15 K); 1.13 ± 0.07 (368.15 K).

On to `CCCCCCC` [heptane] + CCCCCCCCCCCC[N+](C)(C)CCOc1ccccc1.N#C[N-]C#N, for which the activity coefficient (328.15 K) stood at 5.99 ± 0.41; the activity coefficient (338.15 K) was determined as 6.08 ± 0.41; the activity coefficient (348.15 K) amounted to 6.16 ± 0.42; the activity coefficient (358.15 K) turned out to be 6.24 ± 0.43; the activity coefficient (368.15 K) turned out to be 6.33 ± 0.43; the activity coefficient (378.15 K) was 6.41 ± 0.44.

In the case of `CCCCCCC` [heptane] + CCCCCCCCCCCC[N+](C)(C)CCOc1ccccc1.O=S(=O)([N-]S(=O)(=O)C(F)(F)F)C(F)(F)F, the activity coefficient (318.15 K) was 3.44 ± 0.23; the activity coefficient (328.15 K) was found to be 3.52 ± 0.24; the activity coefficient (338.15 K) stood at 3.6 ± 0.25; the activity coefficient (348.15 K) was determined as 3.68 ± 0.25; the activity coefficient (358.15 K) is 3.75 ± 0.26; the activity coefficient (368.15 K) was found to be 3.83 ± 0.26.

On to `C=CCCCC` [hex-1-ene] + CCCCCCCCCCCC[N+](C)(C)CCOc1ccccc1.N#C[N-]C#N, for which the activity coefficient by setting is: (328.15 K) 3.59 ± 0.24; (338.15 K) 3.68 ± 0.25; (348.15 K) 3.76 ± 0.26; (358.15 K) 3.84 ± 0.26; (368.15 K) 3.9 ± 0.27; (378.15 K) 3.99 ± 0.27.

Turning to `C=CCCCC` [hex-1-ene] + CCCCCCCCCCCC[N+](C)(C)CCOc1ccccc1.O=S(=O)([N-]S(=O)(=O)C(F)(F)F)C(F)(F)F, the activity coefficient by setting is: (318.15 K) 2.19 ± 0.15; (328.15 K) 2.24 ± 0.15; (338.15 K) 2.28 ± 0.16; (348.15 K) 2.32 ± 0.16; (358.15 K) 2.36 ± 0.16; (368.15 K) 2.41 ± 0.16.

Take `CCCCCC` [hexane] + CCCCCCCCCCCC[N+](C)(C)CCOc1ccccc1.N#C[N-]C#N: the activity coefficient came to 5.12 ± 0.35 (328.15 K); 5.22 ± 0.36 (338.15 K); 5.3 ± 0.36 (348.15 K); 5.41 ± 0.37 (358.15 K); 5.53 ± 0.38 (368.15 K); 5.6 ± 0.38 (378.15 K).

As for `CCCCCC` [hexane] + CCCCCCCCCCCC[N+](C)(C)CCOc1ccccc1.O=S(=O)([N-]S(=O)(=O)C(F)(F)F)C(F)(F)F, the activity coefficient amounted to 2.91 ± 0.2 (318.15 K); 2.99 ± 0.2 (328.15 K); 3.06 ± 0.21 (338.15 K); 3.15 ± 0.21 (348.15 K); 3.21 ± 0.22 (358.15 K); 3.28 ± 0.22 (368.15 K).

As to `CC(C)c1ccccc1` [isopropylbenzene] + CCCCCCCCCCCC[N+](C)(C)CCOc1ccccc1.N#C[N-]C#N, the activity coefficient was 1.82 ± 0.12 (328.15 K); 1.87 ± 0.13 (338.15 K); 1.94 ± 0.13 (348.15 K); 2 ± 0.14 (358.15 K); 2.05 ± 0.14 (368.15 K); 2.11 ± 0.14 (378.15 K).

On to `CC(C)c1ccccc1` [isopropylbenzene] + CCCCCCCCCCCC[N+](C)(C)CCOc1ccccc1.O=S(=O)([N-]S(=O)(=O)C(F)(F)F)C(F)(F)F, for which the activity coefficient (318.15 K) worked out at 1.14 ± 0.07; the activity coefficient (328.15 K) is 1.19 ± 0.08; the activity coefficient (338.15 K) came out at 1.24 ± 0.08; the activity coefficient (348.15 K) was found to be 1.29 ± 0.08; the activity coefficient (358.15 K) amounted to 1.34 ± 0.09; the activity coefficient (368.15 K) came to 1.39 ± 0.09.

`CO` [methanol] + CCCCCCCCCCCC[N+](C)(C)CCOc1ccccc1.N#C[N-]C#N: the activity coefficient is 0.316 ± 0.031 (328.15 K); 0.324 ± 0.032 (338.15 K); 0.332 ± 0.032 (348.15 K); 0.339 ± 0.032 (358.15 K); 0.346 ± 0.032 (368.15 K); 0.353 ± 0.032 (378.15 K).

For the compound `CO` [methanol] + CCCCCCCCCCCC[N+](C)(C)CCOc1ccccc1.O=S(=O)([N-]S(=O)(=O)C(F)(F)F)C(F)(F)F, the activity coefficient runs as follows: (318.15 K) 1.1 ± 0.07; (328.15 K) 1.06 ± 0.07; (338.15 K) 1.04 ± 0.07; (348.15 K) 1.01 ± 0.06; (358.15 K) 0.982 ± 0.062; (368.15 K) 0.964 ± 0.061.

Regarding `CCCC(=O)OC` [methyl butanoate] + CCCCCCCCCCCC[N+](C)(C)CCOc1ccccc1.N#C[N-]C#N, the activity coefficient runs as follows: (328.15 K) 1.29 ± 0.08; (338.15 K) 1.34 ± 0.09; (348.15 K) 1.38 ± 0.09; (358.15 K) 1.42 ± 0.09; (368.15 K) 1.46 ± 0.1; (378.15 K) 1.5 ± 0.1.

Regarding `CCCC(=O)OC` [methyl butanoate] + CCCCCCCCCCCC[N+](C)(C)CCOc1ccccc1.O=S(=O)([N-]S(=O)(=O)C(F)(F)F)C(F)(F)F, the activity coefficient was determined as 0.565 ± 0.041 (318.15 K); 0.601 ± 0.042 (328.15 K); 0.636 ± 0.044 (338.15 K); 0.672 ± 0.046 (348.15 K); 0.706 ± 0.047 (358.15 K); 0.741 ± 0.049 (368.15 K).

Regarding `COC(C)=O` [methyl ethanoate] + CCCCCCCCCCCC[N+](C)(C)CCOc1ccccc1.N#C[N-]C#N, the activity coefficient reads like this: (328.15 K) 1.03 ± 0.06; (338.15 K) 1.06 ± 0.07; (348.15 K) 1.09 ± 0.07; (358.15 K) 1.12 ± 0.07; (368.15 K) 1.14 ± 0.07; (378.15 K) 1.17 ± 0.07.

In the case of `COC(C)=O` [methyl ethanoate] + CCCCCCCCCCCC[N+](C)(C)CCOc1ccccc1.O=S(=O)([N-]S(=O)(=O)C(F)(F)F)C(F)(F)F, the activity coefficient (318.15 K) is 0.474 ± 0.037; the activity coefficient (328.15 K) came out at 0.503 ± 0.038; the activity coefficient (338.15 K) was 0.534 ± 0.039; the activity coefficient (348.15 K) was 0.563 ± 0.04; the activity coefficient (358.15 K) stood at 0.595 ± 0.042; the activity coefficient (368.15 K) turned out to be 0.628 ± 0.043.

With `CCC(=O)OC` [methyl propanoate] + CCCCCCCCCCCC[N+](C)(C)CCOc1ccccc1.N#C[N-]C#N, the activity coefficient is, setting by setting: (328.15 K) 1.13 ± 0.07; (338.15 K) 1.16 ± 0.07; (348.15 K) 1.19 ± 0.08; (358.15 K) 1.22 ± 0.08; (368.15 K) 1.25 ± 0.08; (378.15 K) 1.28 ± 0.08.

Consider `CCC(=O)OC` [methyl propanoate] + CCCCCCCCCCCC[N+](C)(C)CCOc1ccccc1.O=S(=O)([N-]S(=O)(=O)C(F)(F)F)C(F)(F)F, for which the activity coefficient reads like this: (318.15 K) 0.498 ± 0.038; (328.15 K) 0.53 ± 0.039; (338.15 K) 0.566 ± 0.041; (348.15 K) 0.599 ± 0.042; (358.15 K) 0.633 ± 0.044; (368.15 K) 0.669 ± 0.045.

As for `CC1CCCCC1` [methylcyclohexane] + CCCCCCCCCCCC[N+](C)(C)CCOc1ccccc1.N#C[N-]C#N, the activity coefficient (328.15 K) came to 3.67 ± 0.25; the activity coefficient (338.15 K) came to 3.73 ± 0.25; the activity coefficient (348.15 K) came to 3.78 ± 0.26; the activity coefficient (358.15 K) is 3.85 ± 0.26; the activity coefficient (368.15 K) amounted to 3.9 ± 0.27; the activity coefficient (378.15 K) worked out at 3.95 ± 0.27.

With `CC1CCCCC1` [methylcyclohexane] + CCCCCCCCCCCC[N+](C)(C)CCOc1ccccc1.O=S(=O)([N-]S(=O)(=O)C(F)(F)F)C(F)(F)F, the activity coefficient is, setting by setting: (318.15 K) 2.35 ± 0.16; (328.15 K) 2.39 ± 0.16; (338.15 K) 2.43 ± 0.17; (348.15 K) 2.47 ± 0.17; (358.15 K) 2.51 ± 0.17; (368.15 K) 2.55 ± 0.17.

As to `CCCCCCCCC` [nonane] + CCCCCCCCCCCC[N+](C)(C)CCOc1ccccc1.N#C[N-]C#N, the activity coefficient (328.15 K) is 7.69 ± 0.52; the activity coefficient (338.15 K) is 7.83 ± 0.53; the activity coefficient (348.15 K) was 7.95 ± 0.54; the activity coefficient (358.15 K) amounted to 8.08 ± 0.55; the activity coefficient (368.15 K) turned out to be 8.21 ± 0.56; the activity coefficient (378.15 K) was 8.34 ± 0.57.

On to `CCCCCCCCC` [nonane] + CCCCCCCCCCCC[N+](C)(C)CCOc1ccccc1.O=S(=O)([N-]S(=O)(=O)C(F)(F)F)C(F)(F)F, for which the activity coefficient (318.15 K) amounted to 4.77 ± 0.33; the activity coefficient (328.15 K) is 4.87 ± 0.33; the activity coefficient (338.15 K) was found to be 4.96 ± 0.34; the activity coefficient (348.15 K) was found to be 5.03 ± 0.34; the activity coefficient (358.15 K) came to 5.12 ± 0.35; the activity coefficient (368.15 K) was determined as 5.18 ± 0.35.
